Measurements from patent US20120283208A1, “ANTIBACTERIAL AMINOGLYCOSIDE ANALOGS” (Achaogen, Inc., priority 2009, published 2012).
Converted amounts (≈) assume the structure as drawn.

Assays:
[1] = tested on: E. coli ATCC 25922; assay: MIC broth microdilution, AECO001; type: cell-based; conditions: Escherichia coli; AECO001 is ATCC25922; Mueller Hinton Broth, 35 C, 20 hours
Procedure: (§1) Minimum inhibitory concentrations (MIC) were determined by reference Clinical and Laboratory Standards Institute (CLSI) broth microdilution methods per M7-A7 [2006]. Quality control ranges utilizing E. coli ATCC 25922, P. aeruginosa ATCC 27853 and S. aureus ATCC 29213, and interpretive criteria for comparator agents were as published in CLSI M100-S17 [2007]. Briefly, serial two-fold dilutions of the test compounds were prepared at 2× concentration in Mueller Hinton Broth. The compound dilutions were mixed in 96-well assay plates in a 1:1 ratio with bacterial inoculum. The inoculum was prepared by suspension of a colony from an agar plate that was prepared the previous day. Bacteria were suspended in sterile saline and added to each assay plate to obtain a final concentration of 5×10^5 CFU/mL. The plates were incubated at 35 C for 20 hours in ambient air.

[2] = tested on: P. aeruginosa ATCC 27853; assay: MIC broth microdilution, APAE001; type: cell-based; conditions: Pseudomonas aeruginosa; APAE001 is ATCC27853; Mueller Hinton Broth, 35 C, 20 hours
Procedure: as §1

MIC [1] | MIC [2] | Structure (SMILES)
1 to 16 mg/L (≈ 1.35 to 21.6 µM) | ≤ 1 mg/L | NC[C@@H]1O[C@H](O[C@H]2[C@@H](O)[C@H](O[C@@H]3[C@@H](O)[C@H](NC(=O)C4(O)CNC4)C[C@H](N)[C@H]3O[C@H]3O[C@H](CNCCO)[C@@H](O)C[C@H]3N)O[C@@H]2CO)[C@H](N)[C@@H](O)[C@@H]1O [1/16]
1 to 16 mg/L (≈ 1.32 to 21.2 µM) | ≤ 1 mg/L | NC[C@@H]1O[C@H](O[C@H]2[C@@H](O)[C@H](O[C@@H]3[C@@H](O)[C@H](NC(=O)[C@]4(O)C[C@H](N)C4)C[C@H](N)[C@H]3O[C@H]3O[C@H](CNCCO)[C@@H](O)C[C@H]3N)O[C@@H]2CO)[C@H](N)[C@@H](O)[C@@H]1O [2/9]
1 to 16 mg/L (≈ 1.32 to 21.1 µM) | ≤ 1 mg/L | NC[C@@H](O)[C@H](O)C(=O)N[C@@H]1C[C@H](N)[C@@H](O[C@H]2O[C@H](CNCCO)[C@@H](O)C[C@H]2N)[C@H](O[C@@H]2O[C@H](CO)[C@@H](O[C@H]3O[C@@H](CN)[C@@H](O)[C@H](O)[C@H]3N)[C@H]2O)[C@H]1O [3/3]
1 to 16 mg/L (≈ 1.32 to 21.1 µM) | ≤ 1 mg/L | NC[C@@H]1O[C@H](O[C@H]2[C@@H](O)[C@H](O[C@@H]3[C@@H](O)[C@H](NC(=O)[C@@H](O)[C@@H](O)CN)C[C@H](N)[C@H]3O[C@H]3O[C@H](CNCCO)[C@@H](O)C[C@H]3N)O[C@@H]2CO)[C@H](N)[C@@H](O)[C@@H]1O [4/3]
1 to 16 mg/L (≈ 1.31 to 21 µM) | ≤ 1 mg/L | NC[C@@H](F)[C@H](O)C(=O)N[C@@H]1C[C@H](N)[C@@H](O[C@H]2O[C@H](CNCCO)[C@@H](O)C[C@H]2N)[C@H](O[C@@H]2O[C@H](CO)[C@@H](O[C@H]3O[C@@H](CN)[C@@H](O)[C@H](O)[C@H]3N)[C@H]2O)[C@H]1O [5/3]
1 to 16 mg/L (≈ 1.28 to 20.5 µM) | 1 to 16 mg/L (≈ 1.28 to 20.5 µM) | NC[C@@H]1O[C@H](O[C@H]2[C@@H](O)[C@H](O[C@@H]3[C@@H](O)[C@H](NC(=O)[C@@H](O)C(F)(F)CN)C[C@H](N)[C@H]3O[C@H]3O[C@H](CNCCO)[C@@H](O)C[C@H]3N)O[C@@H]2CO)[C@H](N)[C@@H](O)[C@@H]1O [6/3]
